Tests used:
Assay type in all cases: cell-based
[1] = system: Staphylococcus aureus FDA 209P; experiment: MIC, standard serial dilution method; settings: Muller-Hinton agar medium, 37° C.
[2] = system: Staphylococcus aureus Smith; experiment: MIC, standard serial dilution method; settings: Muller-Hinton agar medium, 37° C.
[3] = system: Staphylococcus aureus MS 9610; experiment: MIC, standard serial dilution method; settings: Muller-Hinton agar medium, 37° C.
[4] = system: Staphylococcus aureus No. 5 (MRSA); experiment: MIC, standard serial dilution method; settings: Muller-Hinton agar medium, 37° C.
[5] = system: Staphylococcus aureus No. 17 (MRSA); experiment: MIC, standard serial dilution method; settings: Muller-Hinton agar medium, 37° C.
[6] = system: Staphylococcus aureus MS 16526; experiment: MIC, standard serial dilution method; settings: Muller-Hinton agar medium, 37° C.
[7] = system: Staphylococcus aureus TY-0428; experiment: MIC, standard serial dilution method; settings: Muller-Hinton agar medium, 37° C.
[8] = system: Micrococcus luteus FDA 16; experiment: MIC, standard serial dilution method; settings: Muller-Hinton agar medium, 37° C.
[9] = system: Micrococcus luteus IFO 3333; experiment: MIC, standard serial dilution method; settings: Muller-Hinton agar medium, 37° C.
[10] = system: Micrococcus luteus PIC 1001; experiment: MIC, standard serial dilution method; settings: Muller-Hinton agar medium, 37° C.
[11] = system: Bacillus anthracis; settings: Muller-Hinton agar medium, 37° C.
[12] = system: Bacillus subtilis NRRL B-558; experiment: MIC, standard serial dilution method; settings: Muller-Hinton agar medium, 37° C.
[13] = system: Bacillus subtilis PCI 219; experiment: MIC, standard serial dilution method; settings: Muller-Hinton agar medium, 37° C.
[14] = system: Bacillus cereus ATCC 10702; experiment: MIC, standard serial dilution method; settings: Muller-Hinton agar medium, 37° C.
[15] = system: Corynebacterium bovis 1810; experiment: MIC, standard serial dilution method; settings: Muller-Hinton agar medium, 37° C.
[16] = system: Escherichia coli NIHJ; experiment: MIC, standard serial dilution method; settings: Muller-Hinton agar medium, 37° C.
[17] = system: Escherichia coli K-12; experiment: MIC, standard serial dilution method; settings: Muller-Hinton agar medium, 37° C.
[18] = system: Escherichia coli BEM 11; experiment: MIC, standard serial dilution method; settings: Muller-Hinton agar medium, 37° C.
[19] = system: Escherichia coli BEM 1121; experiment: MIC, standard serial dilution method; settings: Muller-Hinton agar medium, 37° C.
[20] = system: Escherichia coli BE 1186; experiment: MIC, standard serial dilution method; settings: Muller-Hinton agar medium, 37° C.
[21] = system: Shigella dysenteria JS 11910; experiment: MIC, standard serial dilution method; settings: Muller-Hinton agar medium, 37° C.
[22] = system: Escherichia coli K-12 ML 1692; experiment: MIC, standard serial dilution method; settings: Muller-Hinton agar medium, 37° C.
Method: (§1) The antibacterial activities of the amythiamicin amide derivative of the general formula (I) according to this invention are now concretely described. Compounds No. 1 to No. 11 according to this invention, which were respectively prepared in Examples 1 to 11 hereinafter given, were tested as the test compounds for their minimum inhibitory concentrations (MIC.) (μg/ml) against growth of a variety of test microorganisms by a standard serial dilution method. In the tests, the incubation medium used was Muller-Hinton agar medium and the incubation temperature was 37° C. The test results are shown as antibacterial spectra in the following Tables 2 and 3.

[23] = system: Shigella clexnerl JS 11749; experiment: MIC, standard serial dilution method; settings: Muller-Hinton agar medium, 37° C.
Method: as §1

[24] = system: Shigella sonnei JS 11746; experiment: MIC, standard serial dilution method; settings: Muller-Hinton agar medium, 37° C.
Method: as §1

[25] = system: Salmonella typhi T-63; experiment: MIC, standard serial dilution method; settings: Muller-Hinton agar medium, 37° C.
[26] = system: Salmonella enteritidis 1891; experiment: MIC, standard serial dilution method; settings: Muller-Hinton agar medium, 37° C.
[27] = system: Proteus vulgaris OX 19; experiment: MIC, standard serial dilution method; settings: Muller-Hinton agar medium, 37° C.
[28] = system: Proteus mirabilis IFM OM-9; experiment: MIC, standard serial dilution method; settings: Muller-Hinton agar medium, 37° C.
[29] = system: Providencia rettgeri GN 311; experiment: MIC, standard serial dilution method; settings: Muller-Hinton agar medium, 37° C.
[30] = system: Providencia rettgeri GN 466; experiment: MIC, standard serial dilution method; settings: Muller-Hinton agar medium, 37° C.
[31] = system: Serratia marcescens; experiment: MIC, standard serial dilution method; settings: Muller-Hinton agar medium, 37° C.
[32] = system: Pseudomonas aeruginosa A3; experiment: MIC, standard serial dilution method; settings: Muller-Hinton agar medium, 37° C.
[33] = system: Pseudomonas aeruginosa GN315; experiment: MIC, standard serial dilution method; settings: Muller-Hinton agar medium, 37° C.
[34] = system: Klebsiella pneumonia PCI 602; experiment: MIC, standard serial dilution method; settings: Klebsiella pneumonia PCI 602 (Table 2); Muller-Hinton agar medium, 37° C.
[35] = system: Mycobacterium smegmatis ATCC 607; experiment: MIC, standard serial dilution method; settings: Muller-Hinton agar medium, 37° C.
[36] = system: Candida albicans 3147; experiment: MIC, standard serial dilution method; settings: Muller-Hinton agar medium, 37° C.

SMILES | Minimum growth inhibitory concentrations (MIC.) [1] [µg/mL] | Minimum growth inhibitory concentrations (MIC.) [2] [µg/mL] | Minimum growth inhibitory concentrations (MIC.) [3] [µg/mL] | Minimum growth inhibitory concentrations (MIC.) [4] [µg/mL] | Minimum growth inhibitory concentrations (MIC.) [5] [µg/mL] | Minimum growth inhibitory concentrations (MIC.) [6] [µg/mL] | Minimum growth inhibitory concentrations (MIC.) [7] [µg/mL] | Minimum growth inhibitory concentrations (MIC.) [8] [µg/mL] | Minimum growth inhibitory concentrations (MIC.) [9] [µg/mL] | Minimum growth inhibitory concentrations (MIC.) [10] [µg/mL] | Minimum growth inhibitory concentrations (MIC.) [11] [µg/mL] | Minimum growth inhibitory concentrations (MIC.) [12] [µg/mL] | Minimum growth inhibitory concentrations (MIC.) [13] [µg/mL] | Minimum growth inhibitory concentrations (MIC.) [14] [µg/mL] | Minimum growth inhibitory concentrations (MIC.) [15] [µg/mL] | Minimum growth inhibitory concentrations (MIC.) [16] [µg/mL] | Minimum growth inhibitory concentrations (MIC.) [17] [µg/mL] | Minimum growth inhibitory concentrations (MIC.) [18] [µg/mL] | Minimum growth inhibitory concentrations (MIC.) [19] [µg/mL] | Minimum growth inhibitory concentrations (MIC.) [20] [µg/mL] | also measured
CNC(=O)CC1NC(=O)c2csc(n2)-c2ccc(-c3nc(C(=O)NCCCN(C)CCCNCCc4ccc(Cl)cc4)cs3)nc2-c2csc(n2)-c2csc(n2)C(C(C)C)NC(=O)CNC(=O)c2csc(n2)C(C(C)C)NC(=O)c2nc1sc2C (stereo not drawn) [Compound No. 7] | > 100 | > 100 | > 100 | > 100 | > 100 | > 100 | > 100 | 6.25 | 12.5 | 12.5 | > 100 | > 100 | 50 | > 100 | 25 | > 100 | > 100 | > 100 | > 100 | > 100 | Minimum growth inhibitory concentrations (MIC.) [21]: > 100 µg/mL; Minimum growth inhibitory concentrations (MIC.) [22]: > 100 µg/mL; Minimum growth inhibitory concentrations (MIC.) [23]: > 100 µg/mL; Minimum growth inhibitory concentrations (MIC.) [24]: > 100 µg/mL; Minimum growth inhibitory concentrations (MIC.) [25]: > 100 µg/mL; Minimum growth inhibitory concentrations (MIC.) [26]: > 100 µg/mL; Minimum growth inhibitory concentrations (MIC.) [27]: > 100 µg/mL; Minimum growth inhibitory concentrations (MIC.) [28]: > 100 µg/mL; Minimum growth inhibitory concentrations (MIC.) [29]: > 100 µg/mL; Minimum growth inhibitory concentrations (MIC.) [30]: > 100 µg/mL; Minimum growth inhibitory concentrations (MIC.) [31]: > 100 µg/mL; Minimum growth inhibitory concentrations (MIC.) [32]: > 100 µg/mL; Minimum growth inhibitory concentrations (MIC.) [33]: > 100 µg/mL; Minimum growth inhibitory concentrations (MIC.) [34]: > 100 µg/mL; Minimum growth inhibitory concentrations (MIC.) [35]: > 100 µg/mL; Minimum growth inhibitory concentrations (MIC.) [36]: > 100 µg/mL
CNC(=O)CC1NC(=O)c2csc(n2)-c2ccc(-c3nc(C(=O)NCCCN)cs3)nc2-c2csc(n2)-c2csc(n2)C(C(C)C)NC(=O)CNC(=O)c2csc(n2)C(C(C)C)NC(=O)c2nc1sc2C (stereo not drawn) [Compound No. 5] | 0.78 | 3.12 | 3.12 | 6.25 | 6.25 | 6.25 | 3.12 | 12.5 | 3.12 | 0.78 | 0.78 | 6.25 | 3.12 | 1.56 | > 100 | > 100 | > 100 | > 100 | > 100 | > 100 | Minimum growth inhibitory concentrations (MIC.) [21]: > 100 µg/mL; Minimum growth inhibitory concentrations (MIC.) [22]: > 100 µg/mL; Minimum growth inhibitory concentrations (MIC.) [23]: > 100 µg/mL; Minimum growth inhibitory concentrations (MIC.) [24]: > 100 µg/mL; Minimum growth inhibitory concentrations (MIC.) [25]: > 100 µg/mL; Minimum growth inhibitory concentrations (MIC.) [26]: > 100 µg/mL; Minimum growth inhibitory concentrations (MIC.) [27]: > 100 µg/mL; Minimum growth inhibitory concentrations (MIC.) [28]: > 100 µg/mL; Minimum growth inhibitory concentrations (MIC.) [29]: > 100 µg/mL; Minimum growth inhibitory concentrations (MIC.) [30]: > 100 µg/mL; Minimum growth inhibitory concentrations (MIC.) [31]: > 100 µg/mL; Minimum growth inhibitory concentrations (MIC.) [32]: > 100 µg/mL; Minimum growth inhibitory concentrations (MIC.) [33]: > 100 µg/mL; Minimum growth inhibitory concentrations (MIC.) [34]: > 100 µg/mL; Minimum growth inhibitory concentrations (MIC.) [35]: > 100 µg/mL; Minimum growth inhibitory concentrations (MIC.) [36]: > 100 µg/mL

From patent US6043217A, “Amide derivative of amythiamicin” (Zaidan Hojin Biseibutsu Kagaku Kenyu Kai, priority 1996, dated 2000)
